Source: ChEMBL document CHEMBL1201862, “PubChem BioAssay data set” (2004)
Active and inactive are the calls of the source. Unless noted, no cut-off for these calls is given here.

What was measured:
Neutrophil collagenase = Neutrophil collagenase (Homo sapiens, UniProt P22894); assay: MMP13 inhibition and MMP selectivity, late-stage follow-up, selectivity assay for MMP13 inhibitor project, biochemical, probe development, late stage results, panel member MMP-8 [IC50 Assay] (AID 2067)
Collagenase 3 = Collagenase 3 (Homo sapiens, UniProt P45452); assay: MMP13 inhibition and MMP selectivity, late-stage follow-up, selectivity assay for MMP13 inhibitor project, biochemical, probe development, late stage results, panel member MMP-13 [IC50 Assay] (AID 2067)
Caspase-3 = target: T1, Caspase-3 (Homo sapiens, UniProt P42574); assay: procaspase-3 activation potency of dual hits, dose response, counter-screen for dual procaspase-3/7 activator project, biochemical, absorbance, PC-3 D3A mutant (AID 504328)
T1 sequence (P42574 whole entry): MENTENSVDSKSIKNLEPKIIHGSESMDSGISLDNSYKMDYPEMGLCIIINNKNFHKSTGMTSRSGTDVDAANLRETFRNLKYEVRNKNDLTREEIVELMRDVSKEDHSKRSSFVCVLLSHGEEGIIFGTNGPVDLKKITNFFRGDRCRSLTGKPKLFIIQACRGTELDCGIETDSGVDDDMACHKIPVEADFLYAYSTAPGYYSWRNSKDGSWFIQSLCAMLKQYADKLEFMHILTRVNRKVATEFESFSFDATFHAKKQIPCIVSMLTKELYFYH

[1] = Counterscreen for IDE inhibitors: Luminescence-based cell-based high throughput dose response assay to identify compounds that are cytotoxic to HEK cells. [Related pubchem assays: 434962 (Primary screen (IDE inhibitors in singlicate)), 449730 (Counterscreen (Cytotoxicity in triplicate)), 435028 (Confirmation (IDE inhibitors in triplicate)) …; format: functional; details: HEK293
Insulin-degrading enzyme = target: T2, Insulin-degrading enzyme (Homo sapiens, UniProt P14735); assay: Dose Response: Fluorescence polarization-based cell-based high throughput dose response assay for inhibitors of insulin-degrading enzyme (IDE). [Related pubchem assays: 434962 (Primary screen (IDE inhibitors in singlicate)), 449730 (Counterscreen (Cytotoxicity in triplicate)), 435028 (Confirmation (IDE inhibitors in triplicate)), 434984 (Summary …; format: functional
T2 sequence (P14735 whole entry): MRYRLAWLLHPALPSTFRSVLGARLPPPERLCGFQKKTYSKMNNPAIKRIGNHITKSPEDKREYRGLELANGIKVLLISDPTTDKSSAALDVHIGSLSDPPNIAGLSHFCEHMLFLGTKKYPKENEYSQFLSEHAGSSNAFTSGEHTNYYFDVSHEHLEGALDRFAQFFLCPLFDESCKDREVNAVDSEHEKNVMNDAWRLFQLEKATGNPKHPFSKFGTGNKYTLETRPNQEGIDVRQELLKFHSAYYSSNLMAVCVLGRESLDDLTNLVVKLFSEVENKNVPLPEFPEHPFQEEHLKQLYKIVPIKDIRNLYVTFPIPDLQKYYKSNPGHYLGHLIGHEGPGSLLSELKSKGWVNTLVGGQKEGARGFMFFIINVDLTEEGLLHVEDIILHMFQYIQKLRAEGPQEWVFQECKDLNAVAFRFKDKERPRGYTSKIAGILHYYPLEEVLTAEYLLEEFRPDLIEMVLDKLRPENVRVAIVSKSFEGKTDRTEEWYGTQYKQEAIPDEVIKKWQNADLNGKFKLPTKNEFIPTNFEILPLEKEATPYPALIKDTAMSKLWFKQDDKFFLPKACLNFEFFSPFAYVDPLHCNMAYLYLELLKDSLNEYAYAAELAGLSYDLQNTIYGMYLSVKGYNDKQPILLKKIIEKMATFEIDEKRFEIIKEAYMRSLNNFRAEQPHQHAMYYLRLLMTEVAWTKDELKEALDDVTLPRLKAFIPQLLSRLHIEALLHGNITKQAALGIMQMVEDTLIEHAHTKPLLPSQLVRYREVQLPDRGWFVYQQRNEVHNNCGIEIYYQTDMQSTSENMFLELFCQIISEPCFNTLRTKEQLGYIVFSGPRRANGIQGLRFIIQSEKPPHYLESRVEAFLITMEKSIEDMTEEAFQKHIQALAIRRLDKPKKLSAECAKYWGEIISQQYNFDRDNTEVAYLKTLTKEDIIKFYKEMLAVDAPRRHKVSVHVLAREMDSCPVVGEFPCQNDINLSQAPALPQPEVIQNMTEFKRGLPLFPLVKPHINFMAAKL

[2] = target: T3, Corticotropin-releasing factor receptor 2/Corticotropin-releasing factor-binding protein (Homo sapiens, UniProt P24387+Q13324); assay: activators of CRF receptor 2 with binding protein – uHTS hits, confirmation (AID 602473); format: functional; details: read-out: EC50_Mean
T3 sequence (Q13324 whole entry): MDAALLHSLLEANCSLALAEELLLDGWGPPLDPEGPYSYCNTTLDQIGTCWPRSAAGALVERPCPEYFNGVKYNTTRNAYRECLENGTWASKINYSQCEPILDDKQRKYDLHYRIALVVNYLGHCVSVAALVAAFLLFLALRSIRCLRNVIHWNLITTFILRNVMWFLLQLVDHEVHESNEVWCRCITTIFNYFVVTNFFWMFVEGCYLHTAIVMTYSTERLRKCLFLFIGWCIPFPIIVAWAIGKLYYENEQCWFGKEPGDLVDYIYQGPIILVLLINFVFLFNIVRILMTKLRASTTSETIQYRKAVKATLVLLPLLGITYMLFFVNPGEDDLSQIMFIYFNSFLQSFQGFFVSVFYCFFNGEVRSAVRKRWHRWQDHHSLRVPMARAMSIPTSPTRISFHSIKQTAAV
T3 sequence (P24387 whole entry): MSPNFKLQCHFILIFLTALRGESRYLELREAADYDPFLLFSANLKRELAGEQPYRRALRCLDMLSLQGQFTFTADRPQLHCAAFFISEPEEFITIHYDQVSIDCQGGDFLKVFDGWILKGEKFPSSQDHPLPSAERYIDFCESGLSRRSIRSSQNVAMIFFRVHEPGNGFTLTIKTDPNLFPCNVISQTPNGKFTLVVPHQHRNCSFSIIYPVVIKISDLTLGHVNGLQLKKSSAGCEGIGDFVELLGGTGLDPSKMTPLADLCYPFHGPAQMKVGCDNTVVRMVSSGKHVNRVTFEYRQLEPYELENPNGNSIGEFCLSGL

Caspase-7 = Caspase-7 (Homo sapiens, UniProt P55210); assay: procaspase-7 activators, dose response, dual procaspase-3/-7 activator project, biochemical, absorbance, human (AID 504330)
[3] = target: T4, Voltage-gated N-type calcium channel alpha-1B subunit/Amyloid beta A4 precursor protein-binding family A member 1 (Homo sapiens, UniProt Q00975+Q02410); assay: disruptors of Mint-PDZ/N-type channel peptide interaction – biochemical, HTRF, set 2, SAR follow-up (AID 434980); format: functional
SUMO E1/E2 = SUMO E1/E2 (Homo sapiens, UniProt P63279+Q9UBE0+Q9UBT2); assay: SAR analysis of SUMOylation using HTRF in an in-Vitro dose response assay. [Related pubchem assays (depositor defined):AID2006, AID2011, AID2018, AID2069, AID2658]; format: functional
[4] = target: T4, Voltage-gated N-type calcium channel alpha-1B subunit/Amyloid beta A4 precursor protein-binding family A member 1; assay: disruptors of Mint-PDZ/N-type channel peptide interaction – biochemical, HTRF, SAR follow-up (AID 2489); format: functional
[5] = target: T5, Voltage-dependent T-type calcium channel subunit alpha-1H (Homo sapiens, UniProt O95180); format: functional
[6] = cytotoxicity toward NIH3T3 fibroblasts, dose response, counter-screen, cell-based, ATP luminescence, mouse fibroblasts (AID 2010); format: functional;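 note: cells exposed to compound for about 90 hours before reading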
[7] = inhibitors of intracellular T. cruzi replication, confirmation, NIH3T3 host cells, beta-gal luminescence (AID 2044); format: functional, cell-based;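 note: intracellular parasites grown in NIH/3T3 mouse fibroblasts as host cells; luminescent beta-galactosidase reporter signal from transgenic T. cruzi replicating inside host cells; inhibitors lower the luminescence signal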
[8] = target: T5, Voltage-dependent T-type calcium channel subunit alpha-1H; assay: Inhibitors of T-Type Calcium Channels. [Related pubchem assays (depositor defined):AID449739, AID463087, AID489005, AID493041, AID504579, AID504584, AID504619, AID504628]; format: functional
[9] = target: Phosphoethanolamine/phosphocholine phosphatase (Homo sapiens, UniProt Q8TCT1); assay: SAR assay for compounds that inhibit PHOSPHO1. [Related pubchem assays (depositor defined):AID1545, AID1565, AID1574]
Phosphomannomutase 2 = Phosphomannomutase 2 (Homo sapiens, UniProt O15305); assay: Counter screen SAR assay for PMM2 inhibitors via a fluorescence intensity assay. [Related pubchem assays (depositor defined):AID1545, AID1574]
[10] = target: T6, Mannose-6-phosphate isomerase (Homo sapiens, UniProt P34949); assay: PMI enzyme inhibitors, confirmation, biochemical, fluorescence intensity (AID 1535)
T6 sequence (P34949 whole entry): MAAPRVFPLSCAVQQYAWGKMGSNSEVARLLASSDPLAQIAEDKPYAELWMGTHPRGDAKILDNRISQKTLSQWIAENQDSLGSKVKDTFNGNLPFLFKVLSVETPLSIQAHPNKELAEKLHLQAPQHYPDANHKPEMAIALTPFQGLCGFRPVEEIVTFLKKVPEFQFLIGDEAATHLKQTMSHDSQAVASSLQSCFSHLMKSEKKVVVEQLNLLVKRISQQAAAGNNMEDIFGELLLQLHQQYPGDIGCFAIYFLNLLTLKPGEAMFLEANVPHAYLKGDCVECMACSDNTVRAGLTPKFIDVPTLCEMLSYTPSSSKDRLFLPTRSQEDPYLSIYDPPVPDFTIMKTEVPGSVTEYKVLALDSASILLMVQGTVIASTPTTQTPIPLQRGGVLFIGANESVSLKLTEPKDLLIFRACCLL

T5 sequence (O95180 whole entry): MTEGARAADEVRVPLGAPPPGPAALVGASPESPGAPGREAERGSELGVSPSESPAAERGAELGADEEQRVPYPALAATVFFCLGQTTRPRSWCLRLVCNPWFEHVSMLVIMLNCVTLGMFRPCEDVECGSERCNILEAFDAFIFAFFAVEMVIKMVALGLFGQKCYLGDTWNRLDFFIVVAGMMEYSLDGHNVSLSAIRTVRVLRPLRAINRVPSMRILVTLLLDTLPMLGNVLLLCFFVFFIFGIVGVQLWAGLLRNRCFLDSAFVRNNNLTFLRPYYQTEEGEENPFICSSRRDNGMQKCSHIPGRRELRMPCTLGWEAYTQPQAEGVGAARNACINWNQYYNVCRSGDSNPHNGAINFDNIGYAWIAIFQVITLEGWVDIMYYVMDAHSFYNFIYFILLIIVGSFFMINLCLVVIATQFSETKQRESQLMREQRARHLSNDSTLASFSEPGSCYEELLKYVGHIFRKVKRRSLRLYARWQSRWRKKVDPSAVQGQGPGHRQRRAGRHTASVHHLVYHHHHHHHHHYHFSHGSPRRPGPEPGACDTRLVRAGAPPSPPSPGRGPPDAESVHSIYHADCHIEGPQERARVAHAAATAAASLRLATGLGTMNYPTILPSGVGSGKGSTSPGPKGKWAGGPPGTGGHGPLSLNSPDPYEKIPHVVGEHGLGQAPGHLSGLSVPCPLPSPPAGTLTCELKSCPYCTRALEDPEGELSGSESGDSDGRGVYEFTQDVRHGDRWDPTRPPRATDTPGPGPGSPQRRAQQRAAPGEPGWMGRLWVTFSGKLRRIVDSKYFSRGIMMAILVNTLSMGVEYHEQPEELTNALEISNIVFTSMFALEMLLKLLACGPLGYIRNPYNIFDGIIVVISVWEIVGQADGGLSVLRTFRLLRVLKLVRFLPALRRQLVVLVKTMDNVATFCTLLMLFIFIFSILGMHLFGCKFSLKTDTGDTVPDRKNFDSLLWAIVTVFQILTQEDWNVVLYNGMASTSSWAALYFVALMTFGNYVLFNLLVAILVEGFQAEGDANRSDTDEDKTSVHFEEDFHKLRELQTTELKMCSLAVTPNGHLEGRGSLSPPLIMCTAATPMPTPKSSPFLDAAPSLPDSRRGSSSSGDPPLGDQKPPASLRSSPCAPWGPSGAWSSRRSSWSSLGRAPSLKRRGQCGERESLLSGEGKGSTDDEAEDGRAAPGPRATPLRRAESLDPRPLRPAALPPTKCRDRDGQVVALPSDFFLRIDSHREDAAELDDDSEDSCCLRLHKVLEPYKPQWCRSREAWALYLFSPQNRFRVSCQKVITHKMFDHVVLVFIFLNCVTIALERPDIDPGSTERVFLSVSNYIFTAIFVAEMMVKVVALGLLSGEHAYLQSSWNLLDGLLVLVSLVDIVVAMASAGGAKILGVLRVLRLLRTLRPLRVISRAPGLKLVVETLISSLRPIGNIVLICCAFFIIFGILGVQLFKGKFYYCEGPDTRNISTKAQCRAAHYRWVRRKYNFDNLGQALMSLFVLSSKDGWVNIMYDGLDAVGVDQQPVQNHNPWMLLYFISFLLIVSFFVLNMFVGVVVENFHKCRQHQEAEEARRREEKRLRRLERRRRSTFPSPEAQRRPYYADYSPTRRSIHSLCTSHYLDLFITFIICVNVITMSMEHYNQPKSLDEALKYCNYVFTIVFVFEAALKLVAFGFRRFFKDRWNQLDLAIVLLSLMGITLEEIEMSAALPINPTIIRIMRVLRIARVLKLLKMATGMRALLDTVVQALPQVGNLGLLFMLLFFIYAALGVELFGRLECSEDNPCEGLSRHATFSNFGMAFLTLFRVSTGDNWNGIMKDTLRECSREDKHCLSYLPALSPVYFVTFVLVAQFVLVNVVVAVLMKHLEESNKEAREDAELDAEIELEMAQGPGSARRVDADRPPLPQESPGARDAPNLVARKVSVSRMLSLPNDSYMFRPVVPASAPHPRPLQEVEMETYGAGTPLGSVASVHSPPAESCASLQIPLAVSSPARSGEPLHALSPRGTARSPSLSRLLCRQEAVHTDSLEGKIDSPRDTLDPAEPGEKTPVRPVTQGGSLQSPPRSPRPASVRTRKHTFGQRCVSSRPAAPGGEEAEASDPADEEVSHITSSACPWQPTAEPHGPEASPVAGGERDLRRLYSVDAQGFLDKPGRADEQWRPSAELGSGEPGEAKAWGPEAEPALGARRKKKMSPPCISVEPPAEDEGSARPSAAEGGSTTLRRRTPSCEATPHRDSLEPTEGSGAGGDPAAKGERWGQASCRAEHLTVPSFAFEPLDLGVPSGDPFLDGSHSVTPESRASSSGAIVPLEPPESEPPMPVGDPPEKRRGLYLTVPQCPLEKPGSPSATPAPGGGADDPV
Sequence of SUMO E1/E2 (Q9UBE0 whole entry): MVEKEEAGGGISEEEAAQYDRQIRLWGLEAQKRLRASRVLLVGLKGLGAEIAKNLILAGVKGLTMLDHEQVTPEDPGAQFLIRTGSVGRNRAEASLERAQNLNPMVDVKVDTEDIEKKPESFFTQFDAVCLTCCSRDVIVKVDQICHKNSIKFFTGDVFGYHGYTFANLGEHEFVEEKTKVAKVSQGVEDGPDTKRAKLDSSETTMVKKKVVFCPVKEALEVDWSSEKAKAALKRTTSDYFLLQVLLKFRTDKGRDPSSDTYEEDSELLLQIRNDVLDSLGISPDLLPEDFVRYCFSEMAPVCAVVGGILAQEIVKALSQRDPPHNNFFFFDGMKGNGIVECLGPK
Sequence of SUMO E1/E2 (Q9UBT2 whole entry): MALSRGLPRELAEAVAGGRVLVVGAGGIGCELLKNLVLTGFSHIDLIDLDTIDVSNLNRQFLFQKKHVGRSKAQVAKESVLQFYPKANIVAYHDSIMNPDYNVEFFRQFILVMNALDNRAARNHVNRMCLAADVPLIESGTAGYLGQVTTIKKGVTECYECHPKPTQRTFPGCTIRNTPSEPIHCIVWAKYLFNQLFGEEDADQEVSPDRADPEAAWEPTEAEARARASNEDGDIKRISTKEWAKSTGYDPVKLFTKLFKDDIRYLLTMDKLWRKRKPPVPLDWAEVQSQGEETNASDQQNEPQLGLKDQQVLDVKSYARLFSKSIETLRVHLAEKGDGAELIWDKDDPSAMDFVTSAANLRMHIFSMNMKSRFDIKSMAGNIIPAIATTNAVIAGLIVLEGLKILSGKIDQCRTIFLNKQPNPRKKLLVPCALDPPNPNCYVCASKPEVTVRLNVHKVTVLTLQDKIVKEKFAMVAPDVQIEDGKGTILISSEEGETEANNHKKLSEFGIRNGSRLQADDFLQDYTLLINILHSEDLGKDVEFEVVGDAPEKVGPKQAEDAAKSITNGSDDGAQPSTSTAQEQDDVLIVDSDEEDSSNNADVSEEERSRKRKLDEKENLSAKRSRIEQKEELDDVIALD
Sequence of SUMO E1/E2 (P63279 whole entry): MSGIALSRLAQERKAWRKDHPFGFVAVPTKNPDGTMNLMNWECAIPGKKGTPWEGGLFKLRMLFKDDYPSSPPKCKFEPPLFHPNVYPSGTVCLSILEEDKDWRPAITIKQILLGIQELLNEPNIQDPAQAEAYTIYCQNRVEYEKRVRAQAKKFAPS
Sequence of Phosphomannomutase 2 (O15305 whole entry): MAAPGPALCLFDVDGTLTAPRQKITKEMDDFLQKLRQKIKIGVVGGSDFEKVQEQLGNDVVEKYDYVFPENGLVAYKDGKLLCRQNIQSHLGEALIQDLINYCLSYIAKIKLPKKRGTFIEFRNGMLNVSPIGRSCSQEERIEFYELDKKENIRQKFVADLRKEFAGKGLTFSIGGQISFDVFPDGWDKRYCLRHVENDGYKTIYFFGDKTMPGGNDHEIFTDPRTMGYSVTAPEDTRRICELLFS
Sequence of Phosphoethanolamine/phosphocholine phosphatase (Q8TCT1 whole entry): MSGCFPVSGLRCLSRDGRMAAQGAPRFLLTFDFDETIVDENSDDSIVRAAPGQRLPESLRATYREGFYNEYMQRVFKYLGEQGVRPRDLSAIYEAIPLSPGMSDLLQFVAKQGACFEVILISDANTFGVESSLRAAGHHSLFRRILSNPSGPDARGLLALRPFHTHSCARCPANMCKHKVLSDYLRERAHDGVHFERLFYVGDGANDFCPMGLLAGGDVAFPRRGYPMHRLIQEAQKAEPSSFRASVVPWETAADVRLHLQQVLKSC
Sequence of Neutrophil collagenase (P22894 whole entry): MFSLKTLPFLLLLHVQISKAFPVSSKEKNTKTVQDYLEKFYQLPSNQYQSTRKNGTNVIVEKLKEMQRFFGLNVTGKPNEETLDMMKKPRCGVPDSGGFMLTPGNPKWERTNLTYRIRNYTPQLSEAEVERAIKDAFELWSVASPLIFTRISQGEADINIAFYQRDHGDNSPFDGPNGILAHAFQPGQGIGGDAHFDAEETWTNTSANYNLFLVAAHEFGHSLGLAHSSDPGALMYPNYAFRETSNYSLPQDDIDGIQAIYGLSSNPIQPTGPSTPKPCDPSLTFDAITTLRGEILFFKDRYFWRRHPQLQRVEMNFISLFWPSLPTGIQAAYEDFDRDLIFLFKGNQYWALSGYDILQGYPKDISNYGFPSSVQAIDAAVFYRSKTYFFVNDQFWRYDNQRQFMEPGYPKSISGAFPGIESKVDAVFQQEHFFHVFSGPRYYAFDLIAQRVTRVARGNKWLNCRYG

O=c1[nH]c(SCc2ccc(OC(F)(F)F)cc2)nc2c1CCC2
IC50 (Neutrophil collagenase): > 39.8 µM (inactive)
IC50 (Collagenase 3): > 39.8 µM (active)

O=C(C1=NN(c2ccccc2)C2C(=O)N(c3ccccc3)C(=O)C12)c1ccccc1 (configuration not stated)
EC50 (Caspase-3): > 85.3 µM (inactive)
IC50 [1]: > 55.7 µM (not active)
IC50 (Insulin-degrading enzyme): 25.5 µM (not active)
EC50 [2]: 14.6 µM (active)
EC50 (Caspase-7): > 85.3 µM (inactive)

O=C(COC(=O)c1cc(-c2ccco2)nc2ccccc12)NC(=O)c1ccccc1
IC50 [3]: 8.83 µM (active)
IC50 (SUMO E1/E2): 2.18 µM (active)
IC50 [4]: 21.9 µM (active)

CCc1ccc(-c2nc(CN3CCCC(C(=O)NCCc4ccc(OC)c(OC)c4)C3)c(C)o2)cc1 (configuration not stated)
EC50 [5]: 5.02 µM (active)
EC50 [6]: > 60 µM (not active)
EC50 [7]: 0.161 µM (active)
EC50 [8]: 3.95 µM (active)

O=c1c2ccc(F)cc2sn1-c1cc(Cl)ccc1Cl
IC50 [9]: 0.384 µM (active)
IC50 (Phosphomannomutase 2): 3.37 µM (active)
IC50 [10]: 44.9 µM (active)
